Experimental data reported in ChEMBL document CHEMBL4152282, “Synthesis and photodynamic activities of integrin-targeting silicon(IV) phthalocyanine-cRGD conjugates” (Eur J Med Chem, 2018).

Columns and labels:
[1] = Aggregation behavior of compound in DMF at 1 to 6 uM by UV-vis absorption spectra analysis; format: physicochemical
[2] = Photostability in DMF assessed as release of singlet oxygen at 4 uM preincubated with DPBF in dark followed by irradiation with red light by DPBF decay assay; format: functional
[3] = Aggregation behavior of compound in RPMI 1640 medium with 0.05% cremophor EL at 3 uM by UV-vis absorption spectra analysis; format: physicochemical
[4] = Aggregation behavior of compound in water at 3 uM by UV-vis absorption spectra analysis; format: physicochemical; conditions: buffer
MCF7 [5] = experiment: Photocytotoxicity against human MCF7 cells with low expression of alphaVbeta3 integrin assessed as decrease in cell viability preincubated for 24 hrs followed by red light irradiation and measured after overnight incubation by MTT assay; format: functional, cell-based; conditions: MCF7, light or radiation study
HT-29 [6] = experiment: Photocytotoxicity against human HT-29 cells with high expression of alphaVbeta3 integrin assessed as decrease in cell viability preincubated for 2 hrs followed by red light irradiation and measured after overnight incubation by MTT assay; format: functional, cell-based; conditions: HT-29, light or radiation study
[7] = Selectivity ratio of IC50 for human MCF7 cells with low expression of alphaVbeta3 integrin to IC50 for human HT-29 cells with high expression of alphaVbeta3 integrin preincubated for 24 hrs followed by red light irradiation and measured after overnight incubation by MTT assay; format: functional
HT-29 [8] = experiment: Photocytotoxicity against human HT-29 cells with high expression of alphaVbeta3 integrin assessed as decrease in cell viability preincubated for 24 hrs followed by red light irradiation and measured after overnight incubation by MTT assay; format: functional, cell-based; conditions: HT-29, light or radiation study
MCF7 [9] = experiment: Photocytotoxicity against human MCF7 cells with low expression of alphaVbeta3 integrin assessed as decrease in cell viability preincubated for 2 hrs followed by red light irradiation and measured after overnight incubation by MTT assay; format: functional, cell-based; conditions: MCF7, light or radiation study
[10] = Selectivity ratio of IC50 for human MCF7 cells with low expression of alphaVbeta3 integrin to IC50 for human HT-29 cells with high expression of alphaVbeta3 integrin preincubated for 2 hrs followed by red light irradiation and measured after overnight incubation by MTT assay; format: functional
[11] = Aggregation behavior of compound in DMF by UV-vis absorption spectra analysis; format: physicochemical
[12] = Drug uptake in skin of KM mouse xenografted with […] cells expressing integrin at 0.5 nmol/g, iv measured after 24 hrs by fluorescence imaging method; format: ADME, organism-based, Zone of skin; conditions: in vivo
[13] = Drug uptake in tumor of KM mouse xenografted with […] cells expressing integrin at 0.5 nmol/g, iv measured after 24 hrs by fluorescence imaging method; format: ADME, organism-based, Neoplasm; conditions: in vivo
[14] = Drug uptake in human HT-29 cells at 1 uM after 2 to 24 hrs by confocal laser scanning microscopic method; format: ADME, cell-based; conditions: ht-29, 1 µM
[15] = Drug uptake in spleen of KM mouse xenografted with […] cells expressing integrin at 0.5 nmol/g, iv measured after 24 hrs by fluorescence imaging method; format: ADME, organism-based; conditions: in vivo
[16] = Drug uptake in kidney of KM mouse xenografted with […] cells expressing integrin at 0.5 nmol/g, iv measured after 24 hrs by fluorescence imaging method; format: ADME, organism-based; conditions: in vivo
[17] = Drug uptake in lysosome of human HT-29 cells at 1 uM incubated for 0.5 hrs by Lyso Tracker red dye-based confocal laser scanning microscopic method; format: ADME, subcellular; conditions: ht-29, 0.5 h
Mus musculus = experiment: Drug uptake in KM mouse xenografted with […] cells at 0.5 nmol/g, iv measured up to 24 hrs by fluorescence imaging method; format: ADME, organism-based; conditions: in vivo
[18] = Drug uptake in mitochondria of human HT-29 cells at 1 uM incubated for 0.5 hrs by Mito Tracker green dye-based confocal laser scanning microscopic method; format: ADME; conditions: ht-29, 0.5 h
[19] = Drug uptake in heart of KM mouse xenografted with […] cells expressing integrin at 0.5 nmol/g, iv measured after 24 hrs by fluorescence imaging method; format: ADME, organism-based; conditions: in vivo
[20] = Drug uptake in lung of KM mouse xenografted with […] cells expressing integrin at 0.5 nmol/g, iv measured after 24 hrs by fluorescence imaging method; format: ADME, organism-based; conditions: in vivo
[21] = Drug uptake in liver of KM mouse xenografted with […] cells expressing integrin at 0.5 nmol/g, iv measured after 24 hrs by fluorescence imaging method; format: ADME, organism-based; conditions: in vivo

| SMILES | Activity [1] | Activity [3] | Activity [4] | Activity [11] | Stability [2] | IC50 (MCF7 [5]) [nM] | IC50 (HT-29 [6]) [nM] | Ratio IC50 [7] | IC50 (HT-29 [8]) [nM] | IC50 (MCF7 [9]) [nM] | Ratio IC50 [10] | further results |
| --- | --- | --- | --- | --- | --- | --- | --- | --- | --- | --- | --- | --- |
| [N-]=[N+]=NCCOCCO[Si]1(OCCOCCN=[N+]=[N-])n2c3c4ccccc4c2/N=C2N=C(/N=c4/c5ccccc5/c(n41)=N/C1=NC(=N\3)/c3ccccc31)c1ccccc1\2 (stereo not drawn) |  |  |  | Active | Unstable | 4.4 | 12 | 0.62 | 7.1 | 12 | 1 |  |
| [N-]=[N+]=NCCOCCOCCOCCO[Si]1(OCCOCCOCCOCCO)n2c3c4ccccc4c2/N=C2N=C(/N=c4/c5ccccc5/c(n41)=N/C1=NC(=N\3)/c3ccccc31)c1ccccc1\2 (stereo not drawn) |  |  |  | Not Active | Unstable | 1.7 | 2.6 | 1.21 | 1.4 | 2.7 | 1.04 |  |
| [N-]=[N+]=NCCOCCO[Si]1(OCCOCCO)n2c3c4ccccc4c2/N=C2N=C(/N=c4/c5ccccc5/c(n41)=N/C1=NC(=N\3)/c3ccccc31)c1ccccc1\2 (stereo not drawn) |  |  |  | Not Active | Unstable | 2.6 | 3.2 | 1.18 | 2.2 | 3.7 | 1.15 |  |
| OCCOCCOCCOCCO[Si]1(OCCOCCOCCOCCO)n2c3c4ccccc4c2/N=C2N=C(/N=c4/c5ccccc5/c(n41)=N/C1=NC(=N\3)/c3ccccc31)c1ccccc1\2 |  |  |  | Not Active | Unstable | 0.2 | 0.2 | 1 | 0.2 | 0.2 | 1 |  |
| OCCOCCOCCO[Si]1(OCCOCCOCCO)n2c3c4ccccc4c2/N=C2N=C(/N=c4/c5ccccc5/c(n41)=N/C1=NC(=N\3)/c3ccccc31)c1ccccc1\2 |  |  |  | Not Active | Unstable | 0.3 | 0.3 | 1 | 0.3 | 0.3 | 1 | Drug uptake [12]: Not Active; Drug uptake [13]: Not Active; Drug uptake [14]: Active; Drug uptake [15]: Not Active; Drug uptake [16]: Not Active; Drug uptake [17]: Active; Drug uptake (Mus musculus): Not Active; Drug uptake [18]: Active; Drug uptake [19]: Not Active; Drug uptake [20]: Not Active; Drug uptake [21]: Not Active |
| OCCOCCO[Si]1(OCCOCCO)n2c3c4ccccc4c2/N=C2N=C(/N=c4/c5ccccc5/c(n41)=N/C1=NC(=N\3)/c3ccccc31)c1ccccc1\2 |  |  |  | Not Active | Unstable | 0.9 | 1.2 | 1.13 | 0.8 | 1 | 0.83 |  |
| [N-]=[N+]=NCCOCCOCCO[Si]1(OCCOCCOCCO)n2c3c4ccccc4c2/N=C2N=C(/N=c4/c5ccccc5/c(n41)=N/C1=NC(=N\3)/c3ccccc31)c1ccccc1\2 (stereo not drawn) |  |  |  | Not Active | Unstable | 1.3 | 3 | 0.76 | 1.7 | 2.5 | 0.83 |  |
| [N-]=[N+]=NCCOCCOCCOCCO[Si]1(OCCOCCOCCOCCN=[N+]=[N-])n2c3c4ccccc4c2/N=C2N=C(/N=c4/c5ccccc5/c(n41)=N/C1=NC(=N\3)/c3ccccc31)c1ccccc1\2 (stereo not drawn) |  |  |  | Not Active | Unstable | 4 | 6.3 | 1.03 | 3.9 | 6.5 | 1.03 |  |
| [N-]=[N+]=NCCOCCOCCO[Si]1(OCCOCCOCCN=[N+]=[N-])n2c3c4ccccc4c2/N=C2N=C(/N=c4/c5ccccc5/c(n41)=N/C1=NC(=N\3)/c3ccccc31)c1ccccc1\2 (stereo not drawn) |  |  |  | Not Active | Unstable | 11 | 8.6 | 1.39 | 7.9 | 12 | 1.4 |  |

Continued, in another order:

| Activity [1] | Activity [3] | Activity [4] | Activity [11] | SMILES | Stability [2] | IC50 (MCF7 [5]) [nM] | IC50 (HT-29 [6]) [nM] | Ratio IC50 [7] | IC50 (HT-29 [8]) [nM] | IC50 (MCF7 [9]) [nM] | Ratio IC50 [10] | further results |
| --- | --- | --- | --- | --- | --- | --- | --- | --- | --- | --- | --- | --- |
| Not Active | Not Active | Not Active |  | N=C(N)NCCC[C@@H]1NC(=O)[C@H](Cc2cn(CCOCCOCCO[Si]3(OCCOCCOCCO)n4c5c6ccccc6c4/N=C4N=C(/N=c6/c7ccccc7/c(n63)=N/C3=NC(=N\5)/c5ccccc53)c3ccccc3\4)nn2)NC(=O)[C@@H](Cc2ccccc2)NC(=O)[C@H](CC(=O)O)NC(=O)CNC1=O (stereo partly drawn) | Unstable | 26 | 32 | 1 | 26 | 39 | 1.22 |  |
| Not Active | Not Active | Not Active |  | N=C(N)NCCC[C@@H]1NC(=O)[C@H](Cc2cn(CCOCCOCCOCCO[Si]3(OCCOCCOCCOCCn4cc(C[C@@H]5NC(=O)[C@@H](Cc6ccccc6)NC(=O)[C@H](CC(=O)O)NC(=O)CNC(=O)[C@H](CCCNC(=N)N)NC5=O)nn4)n4c5c6ccccc6c4/N=C4N=C(/N=c6/c7ccccc7/c(n63)=N/C3=NC(=N\5)/c5ccccc53)c3ccccc3\4)nn2)NC(=O)[C@@H](Cc2ccccc2)NC(=O)[C@H](CC(=O)O)NC(=O)CNC1=O (stereo partly drawn) | Unstable | 32 | 19 | 2.46 | 13 | 32 | 1.68 |  |
| Not Active | Not Active | Not Active |  | N=C(N)NCCC[C@@H]1NC(=O)[C@H](Cc2cn(CCOCCO[Si]3(OCCOCCn4cc(C[C@@H]5NC(=O)[C@@H](Cc6ccccc6)NC(=O)[C@H](CC(=O)O)NC(=O)CNC(=O)[C@H](CCCNC(=N)N)NC5=O)nn4)n4c5c6ccccc6c4/N=C4N=C(/N=c6/c7ccccc7/c(n63)=N/C3=NC(=N\5)/c5ccccc53)c3ccccc3\4)nn2)NC(=O)[C@@H](Cc2ccccc2)NC(=O)[C@H](CC(=O)O)NC(=O)CNC1=O (stereo partly drawn) | Unstable | 23 | 22 | 1.64 | 14 | 38 | 1.73 |  |
| Not Active | Not Active | Not Active |  | N=C(N)NCCC[C@@H]1NC(=O)[C@H](Cc2cn(CCOCCO[Si]3(OCCOCCO)n4c5c6ccccc6c4/N=C4N=C(/N=c6/c7ccccc7/c(n63)=N/C3=NC(=N\5)/c5ccccc53)c3ccccc3\4)nn2)NC(=O)[C@@H](Cc2ccccc2)NC(=O)[C@H](CC(=O)O)NC(=O)CNC1=O (stereo partly drawn) | Unstable | 39 | 33 | 1.11 | 35 | 33 | 1 |  |
| Not Active | Not Active | Not Active |  | N=C(N)NCCC[C@@H]1NC(=O)[C@H](Cc2cn(CCOCCOCCOCCO[Si]3(OCCOCCOCCOCCO)n4c5c6ccccc6c4/N=C4N=C(/N=c6/c7ccccc7/c(n63)=N/C3=NC(=N\5)/c5ccccc53)c3ccccc3\4)nn2)NC(=O)[C@@H](Cc2ccccc2)NC(=O)[C@H](CC(=O)O)NC(=O)CNC1=O (stereo partly drawn) | Unstable | 33 | 32 | 1.03 | 32 | 35 | 1.09 |  |
